US9834542B2, “LXR modulators” (BRISTOL-MYERS SQUIBB COMPANY, priority 2013, dated 2017)
pEC50: −log10 of the molar value.

Target: T1, LXRβ (Homo sapiens, UniProt P55055)
T1 construct: Co-transfection expression plasmids, comprising full-length LXRα (pCMX-h LXRα[…] or LXRβ (pCMX-hLXRβ)); expressed in transfected cells; host or cells: CV-1 African Green Monkey Kidney Cells
T1 sequence (P55055 1-460): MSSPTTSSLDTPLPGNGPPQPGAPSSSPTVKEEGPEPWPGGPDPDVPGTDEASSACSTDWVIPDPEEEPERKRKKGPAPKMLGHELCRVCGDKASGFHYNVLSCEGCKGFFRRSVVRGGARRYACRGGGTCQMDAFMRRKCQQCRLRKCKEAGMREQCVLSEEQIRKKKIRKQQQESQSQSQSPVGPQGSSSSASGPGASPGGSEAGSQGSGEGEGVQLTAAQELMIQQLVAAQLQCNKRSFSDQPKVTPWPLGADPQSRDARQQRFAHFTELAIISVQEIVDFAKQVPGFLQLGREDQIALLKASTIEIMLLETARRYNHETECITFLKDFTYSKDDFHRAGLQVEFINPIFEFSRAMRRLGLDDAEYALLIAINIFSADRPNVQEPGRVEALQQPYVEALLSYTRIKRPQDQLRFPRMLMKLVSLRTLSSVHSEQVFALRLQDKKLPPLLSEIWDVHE
T1 sequence (P19793 1-462 partner): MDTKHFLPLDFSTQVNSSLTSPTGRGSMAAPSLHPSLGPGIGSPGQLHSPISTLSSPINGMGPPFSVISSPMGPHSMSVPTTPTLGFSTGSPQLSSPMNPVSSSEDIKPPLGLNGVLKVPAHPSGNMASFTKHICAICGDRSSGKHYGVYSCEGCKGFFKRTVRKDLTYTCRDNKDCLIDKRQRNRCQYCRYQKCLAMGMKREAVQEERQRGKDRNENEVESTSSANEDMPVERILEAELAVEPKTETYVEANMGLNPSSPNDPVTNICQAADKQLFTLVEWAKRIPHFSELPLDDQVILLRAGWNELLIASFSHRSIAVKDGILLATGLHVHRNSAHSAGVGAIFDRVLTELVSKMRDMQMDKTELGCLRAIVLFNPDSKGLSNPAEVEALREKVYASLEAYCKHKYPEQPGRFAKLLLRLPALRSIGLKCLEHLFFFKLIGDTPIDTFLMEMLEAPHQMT
Test: Co-transfection assay (LXRE luciferase reporter), LXRβ
Assay type: cell-based
Conditions: for pEC50: CV-1 cells transfected with pCMX-hLXRβ and LXREx1-Tk-Luciferase, 20 hours incubation; for Emax: LXRβ co-transfection, relative to high control 1-(2,4-difluorobenzyl)-2-oxo-6-(4-phenoxyphenyl)-4-(trifluoromethyl)-1,2-dihydropyridine-3-carbonitrile, read-out: % Efficacy
In short: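 Luciferase output from an LXRE-Tk reporter measured after 20 h, 37 °C compound exposure of transiently transfected CV-1 cells expressing human LXRβ with endogenous RXR. EC50 fitted from 11-point half-log dose responses (mean of ≥2 runs); % efficacy versus maximal response of the reference agonist.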

pEC50 | Emax [%] | SMILES
6.58 | 87 | Cc1nc(C(F)(F)F)cn1-c1ccc(-c2cccc(S(C)(=O)=O)c2)cc1-n1nncc1-c1ccc(OC(F)(F)F)cc1F [Example 61, 5-{2-fluoro-4-[(trifluoromethyl)oxy]phenyl}-1-{3′-(methylsulfonyl)-4-[2-methyl-4-(trifluoromethyl)-1H-imidazol-1-yl]biphenyl-3-yl}-1H-1,2,3-triazole]
6.56 | 91 | Cc1nc(C(F)(F)F)cn1-c1ccc(-c2cccc(S(C)(=O)=O)c2)cc1-n1nncc1-c1ccc(C(F)(F)F)cc1 [Example 62, 1-{3′-(methylsulfonyl)-4-[2-methyl-4-(trifluoromethyl)-1H-imidazol-1-yl]biphenyl-3-yl}-5-[4-(trifluoromethyl)phenyl]-1H-1,2,3-triazole]
6.55 | 68 | Cc1ccc(-c2cnnn2-c2cc(-c3cc(Cl)c(CO)c(S(C)(=O)=O)c3)ccc2-n2cc(C(F)(F)F)nc2C)cc1 [Example 63, {3-chloro-3′-[5-(4-methylphenyl)-1H-1,2,3-triazol-1-yl]-5-(methyllsulfonyl)-4′-[2-methyl-4-(trifluoromethyl)-1H-imidazol-1-yl]biphenyl-4-yl}methanol]
6.54 | 86 | Cc1nc(C(F)(F)F)cn1-c1ccc(-c2cccc(S(C)(=O)=O)c2)cc1-n1nncc1-c1ccc(Cl)c(C(F)(F)F)c1 [Example 64, 5-[4-chloro-3-(trifluoromethyl)phenyl]-1-{3′-(methylsulfonyl)-4-[2-methyl-4-(trifluoromethyl)-1H-imidazol-1-yl]biphenyl-3-yl}-1H-1,2,3-triazole]
6.53 | 80 | Cc1nc(C(F)(F)F)cn1-c1ccc(-c2cccc(S(C)(=O)=O)c2)cc1-n1nncc1-c1ccc(OC(F)F)cc1 [Example 65, 5-{4-[(difluoromethyl)oxy]phenyl}-1-{3′-(methylsulfonyl)-4-[2-methyl-4-(trifluoromethyl)-1H-imidazol-1-yl]biphenyl-3-yl}-1H-1,2,3-triazole]
6.51 | 98 | Cc1nc(C(F)(F)F)cn1-c1ccc(-c2cccc(S(C)(=O)=O)c2)cc1-n1nncc1-c1ccc(Cl)cc1 [Example 66, 5-(4-chlorophenyl)-1-{3′-(methylsulfonyl)-4-[2-methyl-4-(trifluoromethyl)-1H-imidazol-1-yl]biphenyl-3-yl}-1H-1,2,3-triazole]
6.90 | 81 | Cc1nc(C(F)(F)F)cn1-c1ccc(-c2cc(F)c(CO)c(S(C)(=O)=O)c2)cc1-n1nncc1-c1ccc(Cl)cc1Cl [Example 67, {3′-[5-(2,4-dichlorophenyl)-1H-1,2,3-triazol-1-yl]-3-fluoro-5-(methylsulfonyl)-4′-[2-methyl-4-(trifluoromcehyl)-1H-imidazol-1-yl]biphenyl-4-yl}methanol]
6.51 | 80 | Cc1nc(C(F)(F)F)cn1-c1ccc(-c2cccc(S(C)(=O)=O)c2)cc1-n1nncc1-c1ccc(OC(F)(F)F)cc1Cl [Example 68, 5-{2-chloro-4-[(trifluoromethyl)oxy]phenyl}-1-{3′-(methylsulfonyl)-4-[2-methyl-4-(trifluoromethyl)-1H-imidazol-1-yl]biphenyl-3-yl}-1H-1,2,3-triazole]
6.47 | 113 | Cc1nc(C(F)(F)F)cn1-c1ccc(-c2cccc(S(C)(=O)=O)c2)cc1-n1nncc1-c1ccc(Cl)c(F)c1 [Example 69, 5-(4-chloro-3-fluorophenyl)-1-{3′-(methylsulfonyl)-4-[2-methyl-4-(trifluoromethyl)-1H-imidazol-1-yl]biphenyl-3-yl}-1H-1,2,3-triazole]
6.44 | 40 | Cc1nc(C(F)(F)F)cn1-c1ccc(-c2cc(Cl)c(CO)c(S(C)(=O)=O)c2)cc1-n1nncc1-c1ccc(Cl)cc1 [Example 70, {3-chloro-3′-[5-(4-chlorophenyl)-1H-1,2,3-triazol-1-yl]-5-(methylsulfony)-4′-[2-methyl-4-(trifluoromethyl)-1H-imidazol-1-yl]biphenyl-4-yl}methanol]
6.40 | 105 | Cc1nc(C(F)(F)F)cn1-c1ccc(-c2cccc(S(C)(=O)=O)c2)cc1-n1nncc1-c1cc(F)c(F)c(F)c1 [Example 71, 1-{3′-(methylsulfonyl)-4-[2-methyl-4-(trifluoromethyl)-1H-imidazol-1-yl]biphenyl-3-yl}-5-(3,4,5-trifluorophenyl)-1H-1,2,3-triazole]
6.33 | 80 | Cc1nc(C(F)(F)F)cn1-c1ccc(-c2cccc(S(C)(=O)=O)c2)cc1-n1nncc1-c1ccc(C(C)C)cc1 [Example 72, 5-[4-(1-methylethyl)phenyl]-1-{3′-(methylsulfonyl)-4-[2-methyl-4-(trifluoromethyl)-1H-imidazol-1-yl]biphenyl-3-yl}-1H-1,2,3-triazole]
6.32 | 99 | Cc1nc(C(F)(F)F)cn1-c1ccc(-c2cccc(S(C)(=O)=O)c2)cc1-n1nncc1-c1ccc2c(c1)OC(F)(F)O2 [Example 73, 5-(2,2-difluoro-1,3-benzodioxol-5-yl)-1-{3′-(methylsulfonyl)-4-[2-methyl-4-(trifluoromethyl)-1H-imidazol-1-yl]biphenyl-3-yl}-1H-1,2,3-triazole]
6.31 | 72 | COc1ccc(-c2cnnn2-c2cc(-c3cccc(S(C)(=O)=O)c3)ccc2-n2cc(C(F)(F)F)nc2C)cc1C(F)(F)F [Example 74, 5-[4-(methyloxy)-3-(trifluoromethyl)phenyl]-1-{3′-(methylsulfonyl)-4-[2-methyl-4-(trifluoromethyl)-1H-imidazol-1-yl]biphenyl-3-yl}-1H-1,2,3-triazole]
6.90 | 97 | Cc1nc(C(F)(F)F)cn1-c1ccc(-c2cccc(S(C)(=O)=O)c2)cc1-n1nncc1-c1ccc(Cl)c(Cl)c1 [Example 75, 5-(3,4-dichlorophenyl)-1-{3′-(methylsulfonyl)-4-[2-methyl-4-(trifluoromethyl)-1H-imidazol-1-yl]biphenyl-3-yl}-1H-1,2,3-triazole]
6.30 | 69 | Cc1nc(C(F)(F)F)cn1-c1ccc(-c2cccc(S(C)(=O)=O)c2)cc1-n1nncc1-c1ccc(Cl)cc1Cl [Example 76, 5-(2,4-dichlorophenyl)-1-{3′-(methylsulfonyl)-4-[2-methyl-4-(trifluoromethyl)-1H-imidazol-1-yl]biphenyl-3-yl}-1H-1,2,3-triazole]
5.48 | 63 | Cc1nc(C(F)(F)F)cn1-c1ccc(-c2cccc(S(C)(=O)=O)c2)cc1-n1nncc1-c1ccc(F)cn1 [Example 77, 5-fluoro-2-(1-{3′-(methylsulfonyl)-4-[2-methyl-4-(trifluoromethyl)-1H-imidazol-1-yl]biphenyl-3-yl}-1H-1,2,3-triazol-5-yl)pyridine]
6.99 | 94 | Cc1nc(C(F)(F)F)cn1-c1ccc(-c2cc(F)c(CO)c(S(C)(=O)=O)c2)cc1-n1nncc1-c1ccc(OC(F)(F)F)c(Cl)c1 [Example 78, {3′-(5-{3-chloro-4-[(trifluoromethyl)oxy]phenyl}-1H-1,2,3-triazol-1-yl)-3-fluoro-5-(methylsulfonyl)-4′-[2-methyl-4-(trifluoromethyl)-1H-imidazol-1-yl]biphenyl-4-yl}methanol]
6.64 | 71 | Cc1nc(C(F)(F)F)cn1-c1ccc(-c2cc(Cl)c(CO)c(S(C)(=O)=O)c2)cc1-n1nncc1-c1ccc(Cl)c(Cl)c1 [Example 79, {3-chloro-3′-[5-(3,4-dichlorophenyl)-1H-1,2,3-triazol-1-yl]-5-(methylsulfonyl)-4′-[2-methyl-4-(trifluoromethyl)-1H-imidazol-1-yl]biphenyl-4-yl}methanol]
5.57 | 81 | Cc1nc(C(F)(F)F)cn1-c1ccc(-c2cccc(S(C)(=O)=O)c2)cc1-n1nncc1-c1ccc(C(F)(F)F)nc1 [Example 80, 5-(1-{3′-(methylsulfonyl)-4-[2-methyl-4-(trifluoromethyl)-1H-imidazol-1-yl]biphenyl-3-yl}-1H-1,2,3-triazol-5-yl)-2-(trifluoromethyl)pyridine]
